Assays:
[1] = Competition of the tested compounds with DMSO for hydroxyl radicals; settings: 100 μM compound, Fe3+/ascorbic acid, 30 min, 37°C; 100 µM
Method: 2.2.2.2 Competition of the tested compounds with DMSO for hydroxyl radicals
The hydroxyl radicals generated by the Fe ^3+ /ascorbic acid system, were detected according to Nash, by the determination of formaldehyde produced from the oxidation of DMSO. The reaction mixture contained EDTA (0.1 mM), Fe ^3+ (167 μM), DMSO (33 mM) in phosphate buffer (50 mM, pH 7.4), the tested compounds (concentration 0.1mM) and ascorbic acid (10 mM). After 30 min of incubation (37°C) the reaction was stopped with CCl3COOH (17% w/v) (Table 5). Trolox was used as a standard.
Superoxide (O2^-.) anion and hydroxyl radical (^.OH) are free radical species of potential importance. In the acidic conditions of ischemic brain, O2^-. is probably protonated to give HO2^-. species. Iron released from damaged brain cells is more likely to be readily available to catalyze the generation of OH radicals. Among the ROS, the hydroxyl (^•OH) free radical is possibly the most toxic, as it reacts with a number of biological important molecules. Polyunsaturated fatty acids are found in high concentrations in the CNS, and are particularly vulnerable by free radicals. Thus, we tried to test the ability of our compounds to scavenge hydroxyl radicals. […] All the derivatives of series 13 (except of 13i) present high antioxidant activity (80-100%) which is not able to be correlated with any specific structural characteristic since all contain a coumarin, a purine and an isoxazolyl moiery. […] It seems that the overall molar configuration influences the response. However, antioxidants with hydrophilic or lipophilic character are both needed to act as radical scavengers in the aqueous phase or as chain-breaking antioxidants in biological membranes.

[2] = biological target: T1, equine serum butyrylcholinesterase (esBChE) (Equus caballus, UniProt P81908); test: Inhibition of esBChE (Ellman's test); type: biochemical; settings: read-out: esBChE % inhibn. @ 10 μΜ
T1 construct: purchased Sigma; host or cells: equine serum
Text: (§1) 2.2.2.5 Inhibition Study on ChEs in vitro
(§2) In vitro inhibition of electric eel acetylcholinesterase (eeAChE; 463 U/mg, Sigma) and equine serum butyrylcholinesterase (esBChE; 13 U/mg, Sigma) was investigated with a 96-well plate procedure based on the classical Ellman’s spectrophotometric test, as already described.

[3] = Reducing activity of the stable radical DPPH; settings: 100 μM compound, after 20 min
Summary of the method: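 Compounds (100 μM) mixed with equal volume of 100 μM DPPH in absolute ethanol at room temperature; absorbance at 517 nm read after 20 and 60 min against ethanol control. Activity given as RA% (reducing activity); NDGA standard.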

[4] = Inhibition of linoleic acid lipid peroxidation (AAPH); settings: 100 μM compound, 37°C
Summary of the method: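 Sodium linoleate oxidation in 0.05 M phosphate buffer, pH 7.4, at 37°C, initiated by AAPH, with test compounds added from DMSO stock. Conjugated diene hydroperoxide formation followed at 234 nm, with a DMSO-only control and Trolox as standard.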

[5] = biological target: T2, rat monoamine oxidase A (Rattus norvegicus, UniProt P21396); test: Inhibition of MAO-A (spectrofluorimetric method); type: biochemical; settings: 10 μM compound
T2 construct: from tissue
T2 sequence (P21396 1-526): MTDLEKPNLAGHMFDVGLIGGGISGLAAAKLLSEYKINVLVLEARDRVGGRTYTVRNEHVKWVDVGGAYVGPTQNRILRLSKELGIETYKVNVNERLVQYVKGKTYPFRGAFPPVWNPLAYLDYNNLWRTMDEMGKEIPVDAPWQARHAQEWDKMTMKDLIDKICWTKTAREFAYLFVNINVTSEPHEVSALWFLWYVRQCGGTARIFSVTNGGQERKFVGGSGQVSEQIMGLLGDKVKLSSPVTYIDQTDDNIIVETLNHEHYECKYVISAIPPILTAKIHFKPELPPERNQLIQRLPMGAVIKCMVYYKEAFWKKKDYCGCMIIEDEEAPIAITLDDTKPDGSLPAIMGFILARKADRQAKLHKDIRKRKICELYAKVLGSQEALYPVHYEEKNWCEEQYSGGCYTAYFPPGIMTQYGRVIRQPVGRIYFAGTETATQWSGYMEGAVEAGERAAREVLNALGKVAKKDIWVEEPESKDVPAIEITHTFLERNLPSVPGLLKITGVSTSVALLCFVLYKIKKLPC
Text: 2.2.2.6 Inhibition Study on MAOs in vitro
Inhibition of rat monoamine oxidase A and B was studied by means of a spectrofluorimetric method as previously detailed.

[6] = biological target: T3, electric eel acetylcholinesterase (eeAChE) (Electrophorus electricus, UniProt O42275); test: biochemical; type: biochemical; settings: read-out: eeAChE IC50 μΜ
T3 construct: purchased Sigma
Text: as §1, §2

T1 sequence (P81908 whole entry): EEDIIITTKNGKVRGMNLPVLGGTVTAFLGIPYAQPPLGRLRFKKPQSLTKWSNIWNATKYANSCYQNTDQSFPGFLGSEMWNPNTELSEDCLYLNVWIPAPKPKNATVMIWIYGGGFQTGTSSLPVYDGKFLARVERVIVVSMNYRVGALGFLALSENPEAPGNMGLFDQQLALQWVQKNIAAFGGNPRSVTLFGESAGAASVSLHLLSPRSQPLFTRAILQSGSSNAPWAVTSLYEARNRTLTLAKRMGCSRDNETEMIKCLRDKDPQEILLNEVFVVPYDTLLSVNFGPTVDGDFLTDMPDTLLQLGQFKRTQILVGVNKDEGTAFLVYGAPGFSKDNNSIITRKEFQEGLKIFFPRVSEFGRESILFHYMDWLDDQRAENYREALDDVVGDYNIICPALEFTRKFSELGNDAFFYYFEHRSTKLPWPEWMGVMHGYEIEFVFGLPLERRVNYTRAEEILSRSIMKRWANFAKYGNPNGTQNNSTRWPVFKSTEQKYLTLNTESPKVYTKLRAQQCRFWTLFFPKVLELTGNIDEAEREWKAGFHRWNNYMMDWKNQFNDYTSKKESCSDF
T3 sequence (O42275 24-633): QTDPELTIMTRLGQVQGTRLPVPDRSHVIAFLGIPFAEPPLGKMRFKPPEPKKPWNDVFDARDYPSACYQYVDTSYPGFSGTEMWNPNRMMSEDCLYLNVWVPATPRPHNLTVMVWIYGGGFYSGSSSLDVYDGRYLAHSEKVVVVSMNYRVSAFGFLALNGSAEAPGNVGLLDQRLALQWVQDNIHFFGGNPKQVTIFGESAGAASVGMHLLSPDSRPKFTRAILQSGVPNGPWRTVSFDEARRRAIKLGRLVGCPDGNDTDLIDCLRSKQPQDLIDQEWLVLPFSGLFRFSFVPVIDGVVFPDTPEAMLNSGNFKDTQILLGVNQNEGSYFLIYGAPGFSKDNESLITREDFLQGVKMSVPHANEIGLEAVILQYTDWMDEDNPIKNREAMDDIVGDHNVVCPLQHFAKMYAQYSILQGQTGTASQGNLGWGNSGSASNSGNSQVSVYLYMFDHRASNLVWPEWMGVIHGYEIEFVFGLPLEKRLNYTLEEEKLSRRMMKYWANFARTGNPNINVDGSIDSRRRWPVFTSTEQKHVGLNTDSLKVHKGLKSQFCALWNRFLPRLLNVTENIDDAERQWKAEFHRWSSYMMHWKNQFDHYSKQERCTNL

| Structure (SMILES) | ∙ΟΗ % @ 100μΜ (hydroxyl radical scavenging, percent inhibition of formaldehyde production) [1] | inhibition at 10 µM [2] [%] | RA% @ 100μΜ (reducing activity, DPPH) [3] | LP % @ 100μΜ (inhibition of lipid peroxidation) [4] | MAO-A (%) @ 10μΜ [5] | IC50 [6] [µM] |
| --- | --- | --- | --- | --- | --- | --- |
| O=c1cc(OCC2CC(Cn3cnc4c(N5CCCCC5)ncnc43)=NO2)c2ccccc2o1 (stereo not drawn) [4f] | did not present any activity and no | 36 | 3% | 62% | no | 1.4 |
| Cc1cc(=O)oc2ccc(OCC3=NOC(Cn4cnc5c(Cl)ncnc54)C3)cc12 (stereo not drawn) [11b] | did not present any activity and no | 8 | 5% | no | 15% | 5.9 |
| O=c1cc(OCc2cc(Cn3cnc4c(N5CCOCC5)ncnc43)no2)c2ccccc2o1 [13i] | did not present any activity and no | 18 | no | 74% | 6% | 5 |

— paper PMC5748833, “Synthesis and Biological Evaluation of Novel Hybrid Molecules Containing Purine, Coumarin and Isoxazoline or Isoxazole Moieties” (The Open Medicinal Chemistry Journal, 2017)
